Measured values from the supplement of paper PMC10307832.

Assays:
Test in all cases: relative viability (nuclei count vs DMSO), 5 days (fraction); higher = more cells survive
XMD13-2 + Navitoclax = compound: C1CC1C(=O)NC2=NNC3=C2C=CC(=C3)C4=CC(=CC=C4)C(=O)NC5CC5 [XMD13-2] + CC1(C)CCC(c2ccc(Cl)cc2)=C(CN2CCN(c3ccc(C(=O)NS(=O)(=O)c4ccc(N[C@H](CCN5CCOCC5)CSc5ccccc5)c(S(=O)(=O)C(F)(F)F)c4)cc3)CC2)C1 [Navitoclax] (partner 0.5 µM)
How it was run: (§1)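 Values are medians from duplicate plates. Each reflects relative viability, defined as the nuclei count of treated wells over that of vehicle wells. Lung cancer cell lines in 1536-well plates were pin-tool dosed one day after seeding with one drug alone or with a fixed anchor-drug dose plus five library-drug doses (not always all listed) in √10 steps, then fixed, stained and imaged at 4× after 5 days.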

ALW-II-49-7 + Navitoclax = compound: Cc1ccc(C(=O)Nc2cccc(C(F)(F)F)c2)cc1Nc1cncc(C(N)=O)c1 [ALW-II-49-7] + CC1(C)CCC(c2ccc(Cl)cc2)=C(CN2CCN(c3ccc(C(=O)NS(=O)(=O)c4ccc(N[C@H](CCN5CCOCC5)CSc5ccccc5)c(S(=O)(=O)C(F)(F)F)c4)cc3)CC2)C1 [Navitoclax] (partner 0.5 µM)
How it was run: as §1

ALW-II-49-7 + Phenformin = compound: Cc1ccc(C(=O)Nc2cccc(C(F)(F)F)c2)cc1Nc1cncc(C(N)=O)c1 [ALW-II-49-7] + N=C(N)NC(=N)NCCc1ccccc1 [Phenformin] (partner 250 µM)
How it was run: as §1

ALW-II-49-7 + Linsitinib = compound: Cc1ccc(C(=O)Nc2cccc(C(F)(F)F)c2)cc1Nc1cncc(C(N)=O)c1 [ALW-II-49-7] + C[C@]1(O)C[C@@H](c2nc(-c3ccc4ccc(-c5ccccc5)nc4c3)c3c(N)nccn32)C1 [Linsitinib] (partner 1 µM)
How it was run: as §1

Row | Cell Line | relative viability (XMD13-2 + Navitoclax; first compound 0.05 µM) | relative viability (XMD13-2 + Navitoclax; first compound 0.1581 µM) | relative viability (XMD13-2 + Navitoclax; first compound 0.5 µM) | relative viability (XMD13-2 + Navitoclax; first compound 1.581 µM) | relative viability (XMD13-2 + Navitoclax; first compound 5 µM) | relative viability (ALW-II-49-7 + Navitoclax; first compound 0.08 µM) | relative viability (ALW-II-49-7 + Navitoclax; first compound 0.253 µM) | relative viability (ALW-II-49-7 + Navitoclax; first compound 0.8 µM) | relative viability (ALW-II-49-7 + Navitoclax; first compound 2.53 µM) | relative viability (ALW-II-49-7 + Navitoclax; first compound 8 µM) | relative viability (ALW-II-49-7 + Phenformin; first compound 0.08 µM) | relative viability (ALW-II-49-7 + Phenformin; first compound 0.253 µM) | relative viability (ALW-II-49-7 + Phenformin; first compound 0.8 µM) | relative viability (ALW-II-49-7 + Phenformin; first compound 2.53 µM) | relative viability (ALW-II-49-7 + Phenformin; first compound 8 µM) | relative viability (ALW-II-49-7 + Linsitinib; first compound 0.08 µM) | relative viability (ALW-II-49-7 + Linsitinib; first compound 0.253 µM) | relative viability (ALW-II-49-7 + Linsitinib; first compound 0.8 µM) | relative viability (ALW-II-49-7 + Linsitinib; first compound 2.53 µM) | relative viability (ALW-II-49-7 + Linsitinib; first compound 8 µM)
1 | CAL-12T | 1.41 | 1.06 | 1 | 1.18 | 1.24 | 1.15 | 1.08 | 1.2 | 1.42 | 1.17 | 0.543 | 0.498 | 0.603 | 0.627 | 0.538 | 1.01 | 0.965 | 0.736 | 0.796 | 0.701
2 | NCI-H727 | 0.462 | 0.362 | 0.372 | 0.374 | 0.3 | 0.611 | 0.447 | 0.482 | 0.53 | 0.552 | 0.52 | 0.593 | 0.537 | 0.475 | 0.51 | 0.303 | 0.331 | 0.316 | 0.283 | 0.37
3 | ABC-1 |  |  |  |  |  |  |  |  |  |  | 0.3 | 0.244 | 0.249 | 0.26 | 0.262 | 0.87 | 0.85 | 0.676 | 0.885 | 0.765
4 | NCI-H2023 | 1.01 | 1.03 | 0.893 | 0.968 | 1 | 0.925 | 1.1 | 1.03 | 1.01 | 1.02 | 0.384 | 0.467 | 0.403 | 0.395 | 0.319 | 0.653 | 0.579 | 0.697 | 0.679 | 0.645
